Results on one molecule are retold here after US9138659B2, “Compositions, methods, and systems relating to controlled crystallization and/or nucleation of molecular species” (Massachusetts Institute of Technology, priority 2010, dated 2015).

The structures appear in SMILES notation. Values after ≈ are worked out from the molar mass of the structure shown.

Holding throughout (type): physicochemical
Series [1] can be described thus: Isothermal titration calorimetry of ASA adsorption onto microgels. The conditions noted are these: 38/62 ethanol/water, 23° C. On the technique in general: Isothermal titration calorimetry measures the heat released or taken up as one component is titrated into another.
Procedure: The ASA-polymer interactions were further quantified with the solute adsorption enthalpy via Isothermal Titration calorimetry (ITC), which also helps to deepen the understanding of partitioning effect. […] The data are presented both as instantaneous enthalpies at a given concentration, ΔHASA-gel (top), and as cumulative enthalpies up to a certain concentration, ΔHASA-gel ^tot (bottom).
Isothermal titration calorimetry (ITC): ITC measurements were performed on a TA Instruments NanoITC calorimeter. All experiments were performed at 23° C. using injections of ΔV=10 μL of titrant, with a waiting time of 1000 sec in between injections and 25 injections per measurement. For all measurements, The differential heat input, q(t), was measured as a function of time t over all injections, followed by integration of q(t) over each individual injection to obtain the molar heat of injection, Q(T,P,c). The molar heat of injection can then be cumulatively added over all previous injections, yielding the total molar heat, Qtot(T,P,c). […]
where ΔHASA-gel is the molar enthalpy of interaction between ASA and the microgel particles, and ΔHdil^i is the molar enthalpy of dilution of component i (ASA or gel, respectively) in 38/62 (v/v) ethanol/water. […] (X) was used to subtract the measured dilution enthalpies from the initial measurements of Q(T,P,c) in order to obtain ΔHASA-gel. […]
Series [2] can be described thus: Equilibrium partitioning of ASA / ACM into PEGDA and PEGDA-co-AM gels. On the procedure:
This theory is exemplified by quantifying the partitioning of aspirin between the PEGDA gel phase and 38/62 ethanol/water (v/v), and determining the concentration of aspirin in the hydrogel particles. The partitioning experiments were performed at the same solution concentration and temperature as in the nucleation induction time experiments. In the partitioning experiment, both the concentrations of aspirin and ethanol were measured, as there are three species in the bulk solution, namely aspirin, ethanol and water, all of which partition in the gel phase to a certain degree determined by their relative interaction with the PEGDA polymer matrix.
Composition of aspirin solution in the PEGDA gel phase were compared with the bulk phase. PEGDA gels sufficiently large for convenient handling were synthesized by UV polymerization, following the same formulation as the synthesis of PEGDA particles used in the crystallization study. The PEGDA gels were washed with ethanol and vacuum dried to remove unreacted species. The gel was then immersed in excessive 38 mg/ml aspirin solution in 38/62 ethanol/water (v/v) and allowed sufficient time to reach equilibrium swelling at 15° C. before taken out, pad dried, and put in excessive water. After 5 hours immersed in water, the concentrations of aspirin and ethanol in the aqueous phase were analyzed by UV-Vis spectroscopy and Gas Chromatography, respectively.
In FIG. 10: Partitioning of aspirin vs. acetaminophen in the PEGDA gel. Y axis represents the relative API concentration in the PEGDA, normalized by the bulk concentration. The aspirin partitioning experiment was conducted in 38 mg/ml aspirin solution in 38/62 ethanol/water (v/v) at 15° C. As for acetaminophen, 95 mg/ml acetaminophen solution in 38/62 ethanol/water (v/v) was used and the equilibration temperature was 8° C. In both cases, the experimental conditions were kept the same as used in the nucleation induction time study.
Quantification of polymer-solute interactions: The strength of intermolecular interactions between the PEGDA-co-AM polymer network and the molecule to crystallize was characterized with the solute equilibrium partition coefficient at the same condition as used in the crystallization study. Solute partition coefficient κ, defined as the ratio of solute mass fraction in solution confined in the gel to that in the bulk, is a relevant parameter because it informs the solute concentration in the gel at the crystallization condition, which is an important factor affecting nucleation. […] The PEGDA polymers are comprised of the PEG subchain and the acrylate crosslinkers.
Partition coefficient measurements: Partition coefficients of ASA in PEGDA-co-AM gels from its bulk solution were determined as follows. In brief, a series of gels with varying mesh sizes of approximately 5 mm in diameter and 0.5 mm in thickness were synthesized via UV polymerization following the same formula as used in the microgel synthesis. The residue solvent, porogen and monomer molecules were removed by extensive washing with solvent ethanol and subsequent vacuum drying. The dry gels were then immersed in excessive volume of 38 mg/ml ASA solution in 38/62 (v/v) ethanol/water at 15° C. for overnight.

Series [3] can be described thus: Solubility of ASA and ACM.
Series [4] is described as follows: Nucleation induction time of aspirin on crosslinked polymer plates (non-porous and porous). Particulars: for average induction time τ from linear fit ln(P)=−t/τ: bulk polymerization. On the procedure: To further quantify the surface chemistry effect on nucleation kinetics, nucleation induction time distribution was measured with the API of interest. Nucleation induction time is an indicator of the surface nucleation activity because it can be shortened when the presence of a surface lowers the free energy barrier of nucleation. Due to the stochastic nature of nucleation events, a significant number of experiments were performed to obtain the probability distribution of nucleation induction time.
As an example of induction time measurements, polymer plates were prepared by UV polymerizing the mixture of a monomer and the crosslinker divinylbenzene held by Teflon holders. Subsequent drying under vacuum removed unreacted monomer molecules. Monomers used to synthesize polymer plates were 4-Acryloylmorpholine (AM), 4-Hydroxybutyl acrylate (HBA), 2-Carboxyethyl acrylate (CEA), and styrene (STY). AM, HBA, and CEA served as positive controls, whilst STY a negative control. Each polymer plate was inserted together with the Teflon holder vertically into the aspirin solution, and then the solution was quenched to initiate nucleation. The starting concentration and the nucleation temperature were chosen such that the supersaturation produced was high enough to give reasonably short induction time but low enough to suppress bulk nucleation. 48 vials of each polymer sample were tested simultaneously and the fraction of vials crystallized was recorded as a function of time to produce a plot of cumulative probability distribution of induction time, as shown in FIG. 4.
In FIG. 4: Cumulative probability distribution of nucleation induction time (a) and statistical analysis on the same data sets (b) obtained with polymers synthesized via bulk polymerization. Crystallization of aspirin was performed at supersaturation S=4.75. The linear regression in […] follows the formula ln(P)=−t/τ to obtain the average induction time τ. P is the probability for no crystallization event to occur within time t. […] The results of linear fitting are i) STY ln(P)=−t/243.9, R^2=0.987; ii) CEA ln(P)=−t/113.6, R^2=0.978; iii) HBA ln(P)=−t/38.2, R^2=0.995.
For example, by the PIPS method, the mixture of a monomer and the crosslinker divinylbenzene dissolved in ethanol was subjected to UV irradiation to initiate the polymerization. As the molecular weight of the polymer increases to a critical point, dynamic asymmetry between solvent molecules and the polymer lead to nucleation and growth of solvent-rich regions within the polymer matrix. Subsequent evaporation of the solvent during the vacuum drying leaves pores on the polymer films. One common feature shared by most porous surfaces is a raised edge surrounding the pore region, which may be a sign of eruptional behavior caused by fast solvent evaporation under vacuum. As determined by AFM, the pores found on polymer sample AM were around 100 nm in width and 4 nm in depth. Comparatively, polymer sample HBA carried pores about 50 nm in width and 5-8 nm in depth. The non-porous AM and HBA samples were synthesized by bulk polymerization method and used as a control and had relatively smooth surfaces despite a few impurities.

Take `CC(=O)Oc1ccccc1C(=O)O` [aspirin]: the “enthalpy of adsorption of ASA at infinite dilution ΔHASA-gel^∞” value in series [1] (PEG400DA microgels) was -9.8 kcal/mol; in series [1] (PEG400DA-co-AM microgels), -12.3 kcal/mol. The “increase of κ after introducing AM into the PEGDA gel” value in series [2] (ASA, on average) was 60%. Also, the “molar ratio of ethylene oxide units in PEG to ASA” value in series [2] (PEGDA gels, all mesh sizes, calculated from the partition experiments) is given as 7.7. Also, the “AM to ASA molar ratio” value in series [2] (PEGDA-co-AM gels) is “around unity”. Besides, in series [2] (PEGDA-co-AM gels), the “ASA concentration in the PEGDA-co-AM gels relative to bulk solution” value is “as high as six times”. In series [2] (all PEGDA particles, 38 mg/ml in 38/62 ethanol/water, 15° C), the “aspirin concentration in PEGDA particles with respect to the bulk” value is reported as “more than three times”. In addition, the solubility (as a rule, the dissolved amount per volume that the medium holds) in series [3] (aqueous with cosolvent or surfactant or cyclodextrin, 38/62 (v/v) ethanol/water mixture at 25° C) came out at 32 mg/mL (≈ 178 mM). The solubility in water entry in series [3] (water at 3° C) was “essentially insoluble”. The “average induction time τ from linear fit ln(P)=−t/τ” value in series [4] (CEA polymer, S=4.75, FIG. 4, in h) was determined as 113.6; in series [4] (HBA polymer, S=4.75, FIG. 4) it was 38.2 h; in series [4] (STY polymer, S=4.75, FIG. 4, in h) it was 243.9. Besides, the “Average induction time τ” value in series [4] (non-porous AM polymer, S = 4.75) amounted to 38.2 h; in series [4] (non-porous HBA polymer, S = 4.75), 243.9 h; in series [4] (porous AM polymer, S = 4.2), 8.8 h; in series [4] (porous HBA polymer, S = 4.2), 54.6 h.
